ChEMBL document CHEMBL1629648, “New composite genetic element of the Tn916 family with dual macrolide resistance genes in a Streptococcus pneumoniae isolate belonging to clonal complex 271” (2009)
≈ marks a conversion by molar mass, not a printed value.

tested on: Streptococcus pneumoniae; test: Antimicrobial activity against multidrug resistant Streptococcus pneumoniae serotype 19F S43 carring erm(B),mef(E) and tet(M) gene; type: functional

Compared with `CC[C@H]1OC(=O)[C@H](C)[C@@H](O[C@H]2C[C@@](C)(OC)[C@@H](O)[C@H](C)O2)[C@H](C)[C@@H](O[C@@H]2O[C@H](C)C[C@H](N(C)C)[C@H]2O)[C@](C)(O)C[C@@H](C)C(=O)[C@H](C)[C@@H](O)[C@]1(C)O` [ERYTHROMYCIN], `CN(C)[C@@H]1C(O)=C(C(N)=O)C(=O)[C@@]2(O)C(O)=C3C(=O)c4c(O)cccc4[C@@](C)(O)[C@H]3C[C@@H]12` [TETRACYCLINE] is lower in MIC: > 256 µg/mL for the first, 16 µg/mL (≈ 36 µM) for the second.

Going from `CCC[C@@H]1C[C@@H](C(=O)N[C@@H]([C@H]2O[C@H](SC)[C@H](O)[C@@H](O)[C@H]2O)[C@H](C)Cl)N(C)C1` [CLINDAMYCIN] to `CC1(C)S[C@@H]2[C@H](NC(=O)Cc3ccccc3)C(=O)N2[C@H]1C(=O)O` [PENICILLIN G], the MIC falls from > 256 µg/mL to 4 µg/mL (≈ 12 µM).
